Where a chain is given by its changes, count along the chain named.
Legend:
Type in all cases: biochemical
[1] = target: T1, R132H IDH1 (Homo sapiens, UniProt O75874, R132H); assay: Absorbance assay (NADPH consumption), substrate turnover in the absence of 2OG; design: made in house; host or cells: Escherichia coli BL21(DE3) pLyS
Method: (§1) Compounds were dispensed using a CyBio SDW-CW CyBi-Well Simultaneous Pipettor and assay started using a ThermoFisher Multidrop Combi reagent dispenser.
(§2) Reactions were performed as technical quadruplicates.

[2] = target: T2, R172K IDH2 (Homo sapiens, UniProt P48735, R172K); assay: Absorbance assay, variant activity in the presence of equimolar 2OG (inhibition screen)
T2 construct: made in house; host or cells: Sf21 insect cells (cell pellets prepared at Evotec)
T2 sequence (P48735 40-452 R172K): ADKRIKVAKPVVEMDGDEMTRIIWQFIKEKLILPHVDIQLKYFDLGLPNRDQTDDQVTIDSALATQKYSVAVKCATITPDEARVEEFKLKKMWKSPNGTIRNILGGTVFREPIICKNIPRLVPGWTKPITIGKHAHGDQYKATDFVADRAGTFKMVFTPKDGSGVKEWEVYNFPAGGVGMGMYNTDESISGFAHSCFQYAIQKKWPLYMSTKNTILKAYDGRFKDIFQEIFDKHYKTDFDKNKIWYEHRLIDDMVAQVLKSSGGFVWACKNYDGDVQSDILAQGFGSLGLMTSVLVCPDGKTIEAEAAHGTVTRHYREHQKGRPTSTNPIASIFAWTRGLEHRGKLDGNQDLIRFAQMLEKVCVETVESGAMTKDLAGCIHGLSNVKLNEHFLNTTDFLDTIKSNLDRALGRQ
Method: as §1, §2

[3] = target: T3, R140Q IDH2 (Homo sapiens, UniProt P48735, R140Q); assay: as above
T3 construct: made in house; host or cells: Sf21 insect cells (cell pellets prepared at Evotec)
T3 sequence (P48735 40-452 R140Q): T2 sequence (P48735 40-452 R172K) with R101Q, K133R
Method: as §1, §2

[4] = target: T1, R132H IDH1; assay: as above; design: made in house; host or cells: Escherichia coli BL21(DE3) pLyS
Method: as §1, §2

[5] = target: T2, R172K IDH2; assay: Absorbance assay (NADPH consumption), substrate turnover in the absence of 2OG
Method: as §1, §2

[6] = target: T3, R140Q IDH2; assay: as above
Method: as §1, §2

[7] = target: T4, WT IDH2 (Homo sapiens, UniProt P48735); assay: Absorbance assay, WT activity in the presence of equimolar DL-isocitrate (inhibition); settings: […] isocitrate and […] test compound, 75 μM NADP+, 2.0 nM WT IDH2
T4 construct: made in house; host or cells: Sf21 insect cells (cell pellets prepared at Evotec)
T4 sequence (P48735 40-452): T2 sequence (P48735 40-452 R172K) with K133R
Method: as §1, §2

[8] = target: T5, WT IDH1 (Homo sapiens, UniProt O75874); assay: as above
T5 construct: made in house; host or cells: Escherichia coli BL21(DE3) pLyS
T5 sequence (O75874 whole entry): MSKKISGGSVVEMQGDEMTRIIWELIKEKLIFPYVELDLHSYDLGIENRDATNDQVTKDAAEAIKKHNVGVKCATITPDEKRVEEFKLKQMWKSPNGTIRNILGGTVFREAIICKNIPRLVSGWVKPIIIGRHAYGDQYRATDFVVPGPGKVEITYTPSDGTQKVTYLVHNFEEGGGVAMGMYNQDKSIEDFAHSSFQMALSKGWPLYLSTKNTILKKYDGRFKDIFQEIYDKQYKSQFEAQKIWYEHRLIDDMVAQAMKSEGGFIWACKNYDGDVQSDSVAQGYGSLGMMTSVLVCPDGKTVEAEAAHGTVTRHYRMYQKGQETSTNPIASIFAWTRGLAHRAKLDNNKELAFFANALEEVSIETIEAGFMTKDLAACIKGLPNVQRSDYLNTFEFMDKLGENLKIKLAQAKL
Method: as §1, §2

[9] = target: T4, WT IDH2; assay: Absorbance assay, substrate activity in the absence of DL-isocitrate; settings: no DL-isocitrate; […] test compound, 75 μM NADP+, 2.0 nM WT IDH2; compared to DL-isocitrate
Method: as §1, §2

[10] = target: T5, WT IDH1; assay: as above; settings: no DL-isocitrate; […] test compound, 75 μM NADP+, 2.0 nM WT IDH1; compared to DL-isocitrate
Method: as §1, §2

[11] = no 2OG, […] test compound, 0.03 μM R132H IDH1, 50 μM NADPH, 2OG = 100
[12] = 1.0 mM 2OG and 1.0 mM test compound, 0.03 μM R172K IDH2, 50 μM NADPH
[13] = 6.0 mM 2OG and 6.0 mM test compound, 0.03 μM R140Q IDH2, 50 μM NADPH
[14] = […] 2OG and […] test compound, 0.03 μM R132H IDH1, 50 μM NADPH
[15] = no 2OG, 1.0 mM test compound, 0.03 μM R172K IDH2, 50 μM NADPH, 2OG = 100
[16] = no 2OG, 6.0 mM test compound, 0.03 μM R140Q IDH2, 50 μM NADPH, 2OG = 100
[17] = […] isocitrate and […] test compound, 75 μM NADP+, 2.0 nM WT IDH1

T1 sequence (O75874 whole entry R132H): as the sequence (O75874 whole entry) above, with R132H counted along it

activity [%] (%-substrate conversion after 20 min incubation) [1, 11]	activity [%] (%-substrate conversion after 20 min incubation) [2, 12]	activity [%] (%-substrate conversion after 20 min incubation) [3, 13]	activity [%] (%-substrate conversion after 20 min incubation) [4, 14]	activity [%] (%-substrate conversion after 20 min incubation) [5, 15]	activity [%] (%-substrate conversion after 20 min incubation) [6, 16]	activity [%] (%-substrate conversion after 20 min incubation) [7]	activity [%] (%-substrate conversion after 20 min incubation) [8, 17]	activity [%] (%-substrate conversion after 20 min incubation) [9]	activity [%] (%-substrate conversion after 20 min incubation) [10]	Structure (SMILES)	activity [%] (%-substrate conversion after 20 min incubation) ([6]; no 2OG, 6.0 mM test compound, 0.03 μM R140Q IDH2, 50 μM NADPH, 2OG = 100, listed as DL-4-hydroxy-2OG)	activity [%] (%-substrate conversion after 20 min incubation) [1]	activity [%] (%-substrate conversion after 20 min incubation) [2]	activity [%] (%-substrate conversion after 20 min incubation) [3]	activity [%] (%-substrate conversion after 20 min incubation) [4]	activity [%] (%-substrate conversion after 20 min incubation) [5]	activity [%] (%-substrate conversion after 20 min incubation) [6]	activity [%] (%-substrate conversion after 20 min incubation) [8]
< 10%	95 ± 4%	98 ± 8%	89 ± 5%	< 10%	< 10%	95 ± 3%	94 ± 2%			O=C(O)CCC(O)C(=O)O (racemic) [DL-2-hydroglutaric acid]								
< 10%	93 ± 5%	94 ± 9%	83 ± 5%	< 10%	< 10%		94 ± 7%			NC(CCC(=O)O)C(=O)O (racemic) [DL-glutamic acid]								
	102 ± 5%	106 ± 4%	116 ± 17%			97±3%	98±2%	< 10%	< 10%	O=C(O)C(=O)CC(Cc1ccccc1)C(=O)O (racemic) [compound 19]								
< 10%	96 ± 18%	94 ± 8%	115 ± 8%	< 10%	< 10%		108 ± 8%			O=C(O)CCCC(=O)C(=O)O [2-oxoadipic acid]								
< 10%	100 ± 4%	109 ± 3%	95 ± 2%	< 10%	< 10%		103 ± 3%			O=C(O)CC(=O)CC(=O)O [3-oxoglutaric acid]								
< 10%	101 ± 2%	112 ± 7%	104 ± 4%	< 10%	< 10%		106 ± 2%			O=C[C@H](O)[C@@H](O)[C@H](O)[C@H](O)C(=O)O [D-glucuronic acid]								

Continued, compound first:

Structure (SMILES)	activity [%] (%-substrate conversion after 20 min incubation) [1, 11]	activity [%] (%-substrate conversion after 20 min incubation) [2, 12]	activity [%] (%-substrate conversion after 20 min incubation) [3, 13]	activity [%] (%-substrate conversion after 20 min incubation) [4, 14]	activity [%] (%-substrate conversion after 20 min incubation) [5, 15]	activity [%] (%-substrate conversion after 20 min incubation) [6, 16]	activity [%] (%-substrate conversion after 20 min incubation) [7]	activity [%] (%-substrate conversion after 20 min incubation) [8, 17]	activity [%] (%-substrate conversion after 20 min incubation) [9]	activity [%] (%-substrate conversion after 20 min incubation) [10]	activity [%] (%-substrate conversion after 20 min incubation) ([6]; no 2OG, 6.0 mM test compound, 0.03 μM R140Q IDH2, 50 μM NADPH, 2OG = 100, listed as DL-4-hydroxy-2OG)	activity [%] (%-substrate conversion after 20 min incubation) [1]	activity [%] (%-substrate conversion after 20 min incubation) [2]	activity [%] (%-substrate conversion after 20 min incubation) [3]	activity [%] (%-substrate conversion after 20 min incubation) [4]	activity [%] (%-substrate conversion after 20 min incubation) [5]	activity [%] (%-substrate conversion after 20 min incubation) [6]	activity [%] (%-substrate conversion after 20 min incubation) [8]
O=C(O)C(=O)CC(O)C(=O)O (racemic) [DL-4-hydroxy-2-oxoglutaric acid]	< 10%	98 ± 3%	124 ± 8%	82 ± 5%	< 10%	27 ± 3%	87 ± 1%	89 ± 1%			~20%							
COC(=O)CC(C)C(=O)OC (racemic) [DL-dimethyl 2-methylsuccinate]	< 10%	91 ± 4%	116 ± 4%	104 ± 2%	< 10%	< 10%	100 ± 2%	103 ± 1%										
O=C(O)CC(C(=O)O)C(O)C(=O)O (racemic) [DL-isocitric acid]												< 10%	71 ± 5%	64 ± 3%	78 ± 5%	< 10%	< 10%	
O=C(O)C(=O)CC(Cc1ccc2ccccc2c1)C(=O)O (racemic) [compound 20]		51 ± 1%	73 ± 4%	31 ± 2%			97±4%	97±3%	< 10%	< 10%								
O=C(O)C(=O)CCc1ccccc1 [2-oxo-4-phenylbutanoic acid]	< 10%	96 ± 1%	98 ± 8%	90 ± 3%	< 10%	< 10%	96 ± 6%	94 ± 2%										
O=C(O)/C=C(/CC(=O)O)C(=O)O [cis-aconitic acid]												< 10%	99 ± 7%	119 ± 12%	100 ± 2%	< 10%	< 10%	101 ± 2%
O=C(O)C(=O)Cc1c[nH]c2ccccc12 [indole-3-pyruvic acid]	< 10%	87 ± 10%		81 ± 6%	< 10%		89 ± 1%	88 ± 2%										
